Where two headings read alike, the source gives them in different places.
Key:
RAW 264.7 cells = assay: Inhibitory effect on NO production (LPS, Griess reagent); type: cell-based, murine; details: Mus musculus, RAW264.7, 24 h, Addition 30 μM, LPS 1 μg/ml, read-out: Inihibition (%) of NO production
Protocol: Using RPMI1640 media supplemented with 10% fetal bovine serum (FBS), RAW 264.7 cells (obtained from American Type Culture Collection), a murine macrophage cell line, were cultured at 37° C. in a 5% CO2 incubator. The RAW 264.7 cells were harvested and cell density was adjusted to 5×10^5 cell/ml with a RPMI media supplemented with 0.5% FBS and plated at 5×10^4 cell/well to 96-well plate, which were then cultured for 20 hours in a CO2 incubator. After removal of the media, the cells were pre-treated for 1 hour with fresh media containing 30 μM. The test compounds were dissolved in DMSO and diluted to respective concentration in the media. In order to minimize DMSO effect on the nitric oxide formation by the RAW 264.7 cells in the walls, the media were allowed to contain DMSO at a concentration of 0.1% or less.
After completion of one-hour pre-treatment, Lipopolysaccharide (E. coli serotype 055:B5) was added to activate the cells at a final concentration of 1 μg/ml, which were maintained for 24 hours in a CO2 incubator. As a result of the activation of RAW 264.7 cells with LPS, NO was formed. The NO release into the media was in a form of nitrite (NO2^−) and quantitatively measured using the Griess reagent. A control group was treated only with vehicle instead of test compounds.
The inhibitory effect of the test compounds against NO production were determined as the reduction of NO quantity compared with that of the control group.

cortical neuron cells = assay: Protective effect on iron-induced neuronal cell injury (LDH release); type: cell-based; details: FeSO4 50 μM; for IC50: LDH
In short: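 Embryonic (day 17–18) cortical neurons cultured 7–9 days, serum lowered to 0.2%, pretreated 30 min with compound (DMSO ≤0.1%), then exposed to 50 μM FeSO4 for 24 h. LDH released to medium measured; protection expressed as LDH reduction versus vehicle control.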

retina ganglion cell = assay: Protective effect on neuronal cells damage by axotomy of optic nerve; type: in vivo, rat; details: 20 μM, injected vitreously, after axotomy of optic nerve
Protocol: Test compounds were dissolved in DMSO to prepare stock solution (100 mM), which was diluted with physiological saline to the 20 μM. 10 μl of […] was injected vitreously.
Adult rats were anesthetized with chloral hydrate (400 mg/Kg), then optic nerve was exposed by bulbar conjunctiva. Thereafter, nerve corresponding to 0.5 mm or 3 mm from eye ball was excided, respectively. Or through upper eyelid cutaneous amputation was accomplished, then part of lacrimal gland was removed. […] The optic nerve was excised about 5 mm back from eye ball. Blood vessels of retina supplying blood to retina was not impaired. Condition of blood vessels of retina was checked with funduscope. Fluorogold (Fluorochrome Inc. 5% in PBS (phosphate buffered solution) was administrated to Half of test group, in the retrograde after axotomy of optic nerve. To investigate cell survival of the ganglion after axotomy, eyes was removed from rats, then retina was isolated in 3 days, 1 week, 2 weeks, 4 weeks, 2 months, 4 months, and 6 months. The isolated retina was investigated by transmission electron microscope. For quantitative analysis, at the same time tissue of retina was prepared. The prepared tissue was investigated by immunochemical dyeing or fluorescent microscope to which 530˜560 nm filter was installed.

Sprague-Dawley Rat = details: 30 mg/kg; for Infarction volume Medium(%): four times to abdominal cavity, 24 hours after operation
Protocol: Male rat (Sprague-Dawley Rat, 350±50 g, Samyook) was anesthetized by administration of Pentobarbital sodium 40 mg/Kg. PE-19 tubing was inserted to the femoral vein and the artery, left carotid artery was exposed. Before the operation, heparin sulfate 20 μg was injected to the peritoneal cavity. Blood pressure measuring device was inserted to the femoral artery for the continuous measurement of arterial pressure. Blood (10 ml) was collected from the femoral vein to decrease blood pressure to 30 mmHg. If blood pressure is not decreased to 100 mmHg by collection of blood (7 ml), it is evaluated that sympathetic tone is very high.
With blood pressure maintaining to be 30 mmHg, left carotid artery was closed by aneurysm clamp for 20 min to induce ischemia. Reperfusion was accomplished by the collected blood and 0.84% bicarbonate saline (5 ml). Body temperature of rats was constantly maintained to be 37±0.5° C., by using thermal blanket and incandescent light bulbs during the ischemia. After the operation, in recovering period, body temperature was constantly maintained for more than 2 hours. If rats were recovered entirely, they were transferred to animal laboratory. Condition of animal laboratory, such as temperature, humidity and light cycle was constantly maintained to be 27° C., 60% and […], respectively.
After 24 hours from the operation, rats were sacrificed. Then brain was enucleated from rat within 3 min. Enucleated brain was excised on the ice at the interval 2 mm by using brain matrix to produce six coronal sections. The said coronal sections were dyed in 2% 2,3,5-triphenyltetrazolium chloride solution at 37° C. for 30 min. The said dyed coronal section was developed and printed. Thereafter, the ratio of necrosis area to brain area was measured by using Image Analyzer.
Otherwise, test compounds were four times administrated to abdominal cavity at a dose 30 mg/kg. […]
The protective effect on brain damage induced by brain ischemia-reperfusion was evaluated by calculating reduction of necrosis area to that of brain for a control group.

[1] = listed as compound of formula 11

For `COC(OC)[C@@]1(C)Oc2ccc(N)cc2[C@H](N(Cc2nnn(C)n2)c2ccc(Cl)cc2)[C@H]1O` [Example 11, (2S,3R,4S)-6-amino-4-[N-(4-chlorophenyl)-N-(2-methyl-2H-tetrazol-5-ylmethyl)amino]-3-hydroxy-2-methyl-2-dimethoxymethyl-3,4-dihydro-2H-1-benzopyran], the inhibition at 30 µM (RAW 264.7 cells) was 27%, the “protective effect on neuron cell: Inhibition (%, 30 μM compound addition)” value (cortical neuron cells; 30 μM compound, 24 hours, LDH reduction vs control) was 93% and the IC50 (cortical neuron cells; Cortical neurone, 24 h) was < 2000 nM. For the same compound, the IC50 (cortical neuron cells; 24 hours) was 2000 nM, the “Survival of the ganglion cell(%)” value (retina ganglion cell) was 43% and the “Survival of the ganglion cell(%)” value (retina ganglion cell; [1]) was 43%. The “Infarction volume Medium(%)” value (Sprague-Dawley Rat) was 21.5 ± 2.6%, the “Infarction volume Medium(%)” value (Sprague-Dawley Rat; [1]) was 21.5% and the “Infarction volume Decrease(%)” value (Sprague-Dawley Rat; relative to control group) was 46.3%.

From US7414068B2, “Benzopyran derivatives substituted with secondary amines including tetrazole, method for the preparation thereof and pharmaceutical compositions containing them” (Dongbu Hannong Chemical Co., Ltd., priority 2002, dated 2008)
